Target: L-type calcium channel (Cavia porcellus)
Assay: Displacement of [3H]diltiazem from L-type calcium channel of guinea pig striated muscle

Row | SMILES | Ki
1 | COc1ccc([C@@H]2Sc3ccccc3N(CCN(C)C)C(=O)[C@@H]2C)cc1 [(2R,3S)-5-(2-Dimethylamino-ethyl)-2-(4-methoxy-phenyl)-3-methyl-2,3-dihydro-5H-benzo[b][1,4]thiazepin-4-one] | 0.54 µM
2 | COc1ccc([C@@H]2Sc3cc(OC)ccc3N(CCN(C)C)C(=O)[C@@H]2OC(C)=O)cc1 [Acetic acid (2S,3S)-5-(2-dimethylamino-ethyl)-8-methoxy-2-(4-methoxy-phenyl)-4-oxo-2,3,4,5-tetrahydro-benzo[b][1,4]thiazepin-3-yl ester] | 0.042 µM
3 | COc1ccc([C@@H]2Sc3cc(OC)ccc3N(CCN(C)C)C(=O)[C@@H]2C)cc1 [(2R,3S)-5-(2-Dimethylamino-ethyl)-8-methoxy-2-(4-methoxy-phenyl)-3-methyl-2,3-dihydro-5H-benzo[b][1,4]thiazepin-4-one] | 0.085 µM

Source: BindingDB's records for doi:10.1016/S0960-894X(01)80767-8 (1993)
